Consider two compounds from paper PMC6469291, “2-Nitroimidazole-Furanoside Derivatives for Hypoxia Imaging—Investigation of Nucleoside Transporter Interaction, ^18F-Labeling and Preclinical PET Imaging” (Pharmaceuticals, 2019).

Where two headings read alike, the source gives them in different places.

Holding throughout (assay type): cell-based
One assay has as its target T1, hCNT1 (SLC28A1) (Homo sapiens, UniProt O00337).
T1 construct: expressed in transfected cells; host or cells: Saccharomyces cerevisiae
T1 sequence (O00337 1-649): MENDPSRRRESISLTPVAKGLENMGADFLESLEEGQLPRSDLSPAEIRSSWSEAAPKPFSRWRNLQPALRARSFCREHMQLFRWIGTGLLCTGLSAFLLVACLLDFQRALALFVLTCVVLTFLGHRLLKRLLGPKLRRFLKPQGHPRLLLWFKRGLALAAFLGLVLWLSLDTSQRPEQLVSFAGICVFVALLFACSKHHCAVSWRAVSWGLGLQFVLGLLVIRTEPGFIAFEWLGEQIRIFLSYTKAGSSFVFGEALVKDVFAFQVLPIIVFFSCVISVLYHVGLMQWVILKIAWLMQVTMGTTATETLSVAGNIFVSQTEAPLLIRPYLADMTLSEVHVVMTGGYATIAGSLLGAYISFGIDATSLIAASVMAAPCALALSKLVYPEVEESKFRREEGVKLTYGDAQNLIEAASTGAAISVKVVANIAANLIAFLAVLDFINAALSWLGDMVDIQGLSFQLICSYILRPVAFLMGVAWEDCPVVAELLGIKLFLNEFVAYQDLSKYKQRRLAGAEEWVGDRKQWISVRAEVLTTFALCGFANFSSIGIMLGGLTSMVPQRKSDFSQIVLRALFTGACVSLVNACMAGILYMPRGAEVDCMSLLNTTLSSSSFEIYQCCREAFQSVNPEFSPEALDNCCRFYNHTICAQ
Briefly: Inhibition of [^3H]uridine uptake in yeast cells producing recombinant hCNT1. The procedure:
(§1) The interaction of 2-nitroimidazole sugars with nucleoside transporters was determined by ability of the 2-nitroimidazole sugars to inhibit [^3H]uridine uptake in yeast cells producing recombinant human nucleoside transporters and results expressed as IC50 values.
(§2) Saccharomyces cerevisiae yeast was separately transformed with plasmids (pYPhENT1, pYPhENT2, pYPhCNT1, pYPhCNT2, or pYPhCNT3) encoding hNTs (hENT1, hENT2, hCNT1, hCNT2, or hCNT3, respectively) as described elsewhere. Uptake of 1 µmol/L [^3H]uridine (Moravek Biochemicals) into yeast was measured as previously described using a semi-automated cell harvester (Micro96 HARVESTER; Skatron Instruments, Tranby, Norway). Yeast was incubated at room temperature with 1 µmol/L [^3H]uridine in yeast growth media (pH 7.4) in the presence or absence (uninhibited controls) of graded concentrations (0–3 mM) of test compounds. The following compounds were used for transporter experiments: FAZA, β-FAZA, α-FAZDR, β-FAZDR. Uridine self-inhibition was used to determine maximum inhibition of mediated transport. Concentration–effect curves were subjected to nonlinear regression analysis using Prism software (version 4.03; GraphPad Software Inc.) to obtain the concentration of test compound that inhibited uridine uptake by 50%, relative to that of untreated cells (IC50 values). Each IC50 value determination was conducted with nine concentrations and four replicates per concentration and experiments were repeated two to three times.

The next assay concerns the target T2, hCNT3 (SLC28A3) (Homo sapiens, UniProt Q9HAS3).
T2 construct: expressed in transfected cells; host or cells: Saccharomyces cerevisiae
T2 sequence (Q9HAS3 1-691): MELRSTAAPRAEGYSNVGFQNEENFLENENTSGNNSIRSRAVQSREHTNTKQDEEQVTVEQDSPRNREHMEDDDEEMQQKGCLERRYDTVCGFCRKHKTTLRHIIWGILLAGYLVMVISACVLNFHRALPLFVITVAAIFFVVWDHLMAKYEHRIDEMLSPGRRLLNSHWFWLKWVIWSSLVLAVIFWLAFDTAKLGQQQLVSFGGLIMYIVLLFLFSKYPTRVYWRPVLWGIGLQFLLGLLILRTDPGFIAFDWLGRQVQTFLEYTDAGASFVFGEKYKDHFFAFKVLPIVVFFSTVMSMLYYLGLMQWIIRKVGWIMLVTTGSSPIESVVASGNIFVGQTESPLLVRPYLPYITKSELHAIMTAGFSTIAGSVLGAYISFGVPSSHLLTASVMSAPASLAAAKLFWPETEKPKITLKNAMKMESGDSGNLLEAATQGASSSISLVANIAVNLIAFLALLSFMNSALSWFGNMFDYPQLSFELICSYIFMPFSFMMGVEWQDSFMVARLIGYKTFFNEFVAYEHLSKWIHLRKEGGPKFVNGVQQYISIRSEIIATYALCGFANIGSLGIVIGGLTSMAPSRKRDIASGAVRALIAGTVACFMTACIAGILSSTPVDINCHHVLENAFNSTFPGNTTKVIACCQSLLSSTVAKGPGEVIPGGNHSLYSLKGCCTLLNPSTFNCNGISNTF
Briefly: Inhibition of [^3H]uridine uptake in yeast cells producing recombinant hCNT3. The procedure: as §1, §2

Another assay addresses T3, hENT2 (SLC29A2) (Homo sapiens, UniProt Q14542).
T3 construct: expressed in transfected cells; host or cells: Saccharomyces cerevisiae
T3 sequence (Q14542 1-456): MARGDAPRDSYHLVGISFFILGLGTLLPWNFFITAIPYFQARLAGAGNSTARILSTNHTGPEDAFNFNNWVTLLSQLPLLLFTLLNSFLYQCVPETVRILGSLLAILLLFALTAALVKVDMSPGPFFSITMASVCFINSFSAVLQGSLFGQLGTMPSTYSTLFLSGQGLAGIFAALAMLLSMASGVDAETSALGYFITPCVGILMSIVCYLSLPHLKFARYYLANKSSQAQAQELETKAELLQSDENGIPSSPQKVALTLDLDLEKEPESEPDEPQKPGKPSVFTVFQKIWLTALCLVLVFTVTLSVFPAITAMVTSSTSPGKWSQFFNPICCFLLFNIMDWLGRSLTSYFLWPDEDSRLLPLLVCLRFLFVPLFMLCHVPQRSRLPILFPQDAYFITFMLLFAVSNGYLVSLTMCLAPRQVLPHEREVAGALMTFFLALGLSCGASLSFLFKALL
Briefly: Inhibition of [^3H]uridine uptake in yeast cells producing recombinant hENT2. The following applies: inhibition of 1 µmol/L [^3H]uridine transport, yeast, 0–3 mM test compound, mean ± SE, n = 2–3; NI = no interaction. As for the experimental part: as §1, §2

Another assay has as its target T4, hCNT2 (SLC28A2) (Homo sapiens, UniProt O43868).
T4 construct: expressed in transfected cells; host or cells: Saccharomyces cerevisiae
T4 sequence (O43868 1-658): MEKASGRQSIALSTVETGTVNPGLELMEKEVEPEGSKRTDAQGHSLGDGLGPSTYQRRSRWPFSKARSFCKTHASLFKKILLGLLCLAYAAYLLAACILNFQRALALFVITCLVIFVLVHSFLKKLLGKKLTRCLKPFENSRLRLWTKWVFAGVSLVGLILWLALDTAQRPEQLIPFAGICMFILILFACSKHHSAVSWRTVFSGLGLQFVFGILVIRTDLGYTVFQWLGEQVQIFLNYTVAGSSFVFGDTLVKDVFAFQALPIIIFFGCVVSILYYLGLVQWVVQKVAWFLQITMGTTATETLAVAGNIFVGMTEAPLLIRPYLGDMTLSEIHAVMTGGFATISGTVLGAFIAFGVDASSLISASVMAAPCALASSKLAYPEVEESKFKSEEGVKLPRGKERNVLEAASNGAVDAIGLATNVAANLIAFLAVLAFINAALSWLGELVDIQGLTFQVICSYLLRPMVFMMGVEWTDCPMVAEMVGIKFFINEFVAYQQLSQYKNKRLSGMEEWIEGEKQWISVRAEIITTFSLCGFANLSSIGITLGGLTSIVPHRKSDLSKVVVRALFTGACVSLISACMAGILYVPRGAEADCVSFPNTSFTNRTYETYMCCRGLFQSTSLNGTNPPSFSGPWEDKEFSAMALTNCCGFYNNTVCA
Put plainly: Inhibition of [^3H]uridine uptake in yeast cells producing recombinant hCNT2. As for the experimental part:
as §1, §2

For the next assay, the target named is T5, hENT1 (SLC29A1) (Homo sapiens, UniProt Q99808).
T5 construct: expressed in transfected cells; host or cells: Saccharomyces cerevisiae
T5 sequence (Q99808 1-456): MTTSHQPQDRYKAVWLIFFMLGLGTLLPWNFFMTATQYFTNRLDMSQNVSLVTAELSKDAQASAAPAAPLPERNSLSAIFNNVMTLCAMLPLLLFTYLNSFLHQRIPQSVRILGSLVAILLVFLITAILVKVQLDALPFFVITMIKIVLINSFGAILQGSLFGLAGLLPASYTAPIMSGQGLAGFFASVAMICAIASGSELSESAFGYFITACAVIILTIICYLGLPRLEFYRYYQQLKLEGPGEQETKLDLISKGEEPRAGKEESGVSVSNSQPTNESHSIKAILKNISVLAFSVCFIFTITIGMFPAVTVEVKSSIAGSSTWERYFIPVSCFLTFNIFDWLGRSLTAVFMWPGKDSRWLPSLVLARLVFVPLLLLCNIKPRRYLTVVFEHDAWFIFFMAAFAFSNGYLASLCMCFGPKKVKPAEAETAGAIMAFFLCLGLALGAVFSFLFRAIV
Briefly: Inhibition of [^3H]uridine uptake in yeast cells producing recombinant hENT1. Particulars: inhibition of 1 µmol/L [^3H]uridine transport, yeast, 0–3 mM test compound, mean ± SE, n = 2–3; NI = no interaction. As for the experimental part:
as §1, §2

Setting [1] is: inhibition of 1 µmol/L [^3H]uridine transport, yeast, 0–3 mM test compound, mean ± SE, n = 2–3, NI = no interaction.

As to `O=[N+]([O-])c1nccn1[C@H]1O[C@H](CF)[C@@H](O)[C@@H]1O` [FAZA, 1-(5′-deoxy-5′-fluoro-α-D-arabinofuranosyl)-2-nitroimidazole], the IC50 at hCNT1 (SLC28A1) is 0.29 ± 0.044 mM; on hCNT3 (SLC28A3), 1.38 ± 0.1 mM; at hENT2 (SLC29A2) it was more than 3 mM; at hCNT2 (SLC28A2), 0.64 ± 0.01 mM; on hENT1 (SLC29A1) it was more than 3 mM. For the same compound, the “IC50 hENT2 (SLC29A2)” value at hENT2 (SLC29A2) is on record as “no interaction”. Further, at hENT1 (SLC29A1), the “IC50 hENT1 (SLC29A1)” value is reported as “no interaction”.
Turning to `O=[N+]([O-])c1nccn1C1CC(O)C(CF)O1` (stereo not drawn) [α-FAZDR], at hCNT1 (SLC28A1) (setting [1]), the 50% inhibitory concentration (IC50) is more than 3 mM and the “IC50 hCNT1 (SLC28A1)” value was “no interaction”. Further, on hCNT3 (SLC28A3) (setting [1]), the IC50 is more than 3 mM and the “IC50 hCNT3 (SLC28A3)” value is on record as “no interaction”. In addition, at hENT2 (SLC29A2), the IC50 was more than 3 mM and the “IC50 hENT2 (SLC29A2)” value is recorded as “no interaction”. In addition, at hCNT2 (SLC28A2) (setting [1]), the IC50 is more than 3 mM and the “IC50 hCNT2 (SLC28A2)” value is on record as “no interaction”. In addition, on hENT1 (SLC29A1), the IC50 was more than 3 mM and the “IC50 hENT1 (SLC29A1)” value is reported as “no interaction”.

The IC50 is the concentration needed to halve the response being measured.
